According to paper PMC8899614, “Triterpenoid Saponins From the Fruit of Acanthopanax senticosus (Rupr. & Maxim.) Harms” (Frontiers in Chemistry, 2022):
Like-named read-outs stand apart in the source and are kept apart here.

Legend:
[1] = tested on: BV2 microglia; test: Cytotoxicity on BV2 microglia by CCK-8 assay; settings: read-out: Cytotoxic activities on BV2 cells, IC50; BV2 cells, 24 h, CCK-8, OD 450 nm, repeated three times
Protocol: (§1) A drug-containing medium (0, 50, 100, 200, 400, and 600 μM) was added to each well of the administration group, and an equal volume of medium was also added to the blank group, and they were incubate at 37°C and 5% CO2 for 24 h. After the culture, 10 μl of CCK-8 was added to each well and incubated for 1–4 h at 37°C and 5% CO2. The absorbance (OD) value of each well at 450 nm was detected with a microplate reader, repeating three times, and its IC50 value was calculated.

[2] = tested on: NO production in LPS-induced BV2 microglia; test: NO production inhibition in LPS-induced BV2 microglia (Griess reaction); format: cell-based; settings: for IC50: read-out: Inhibitory effects on NO in LPS-induced BV-2 cells, IC50; for Inhibitory effect on neuroinflammation (in words): LPS-induced BV2 microglia neuroinflammation model
Protocol: The BV2 microglia cells were plated into a 96-well plate. After adding LPS (1 μg/ml) to each well for 12 h, it was treated with or without compounds of various concentrations (0, 100, 200, 300, 400, and 600 μM) for 12 h. The NO production in the supernatant was measured by the Griess reaction. The absorbance at 570 nm was measured using a microplate reader. The NO concentration and the inhibitory rate were calculated through a calibration curve. Quercetin was used as the positive control. Experiments were repeated three times.

[3] = Cytotoxicity on BV2 microglia by CCK-8 assay; settings: mouse, BV2 microglia cells
Protocol: as §1

[4] = LPS 1 μg/ml, Griess reaction, n = 3, x ± s, IC50 > 100 μM deemed inactive

| Compound | IC50 [1] | IC50 ([2]; Mus musculus, BV-2) | IC50 at 24 h [3] | IC50 [2, 4] | Inhibitory effect on neuroinflammation (in words) [2] |
| --- | --- | --- | --- | --- | --- |
| CC1OC(OC2C(OC3CCC4(C)C(CCC5(C)C4CC=C4C6CC(C)(C)CCC6(C(=O)OC6OC(CO)C(O)C(O)C6O)CCC45C)C3(C)C)OCC(O)C2O)C(O)C(O)C1O [Compound 26, oleanolic acid 3-O-α-L-rhamnopyranosyl(1→2)-α-L-arabinopyranosyl-28-O-β-D-glucopyranosyl ester] | 160 ± 13.5 µM | – | – | – | – |
| CCOC(=O)C1OC(OC2CCC3(C)C(CCC4(C)C3CC=C3C5CC(C)(C)CCC5(C(=O)OC5OC(CO)C(O)C(O)C5O)CCC34C)C2(C)CO)C(O)C(O)C1O [Compound 2, 3-O-β-D-6′-ethyl-glucuronopyranosyl-23-hydroxy-olean-12-en-28-β-D-glucopyranosyl] | – | > 100 µM | 157 ± 12.7 µM | – | – |
| 3-[(O-β-D-glucopyranosyl-(1→3)-α-L-arabinopyranosyl)oxy]-30- noroleana-12,20(29)-dien-28-oic acid [Compound 29] | 127 ± 10.6 µM | – | – | > 100 µM | – |
| tragopogonsaponin A methyl ester [Compound 14] | 585 ± 45.6 µM | – | – | > 100 µM | – |
| 3-O-α-arabinopyranosyl-(1→2)-β-glucopyranoside-30-norolean-12,20(29)-dien-28-oic acid [Compound 28] | 565 ± 48 µM | – | – | > 100 µM | – |
| COC(=O)C1OC(OC2CCC3(C)C(CCC4(C)C3CCC3C5=CC(C)(C)CCC5(C(=O)O)CCC34C)C2(C)CO)C(O)C(O)C1O [Compound 5, 3β,23-dihydroxyolean-18-en-28-oic acid 3-O-β-D-glucuronopyranoside-6′-O-methyl ester] | – | < 100 µM | 236 ± 20.2 µM | – | moderate inhibitory effects on neuroinflammation |
| CC1(C(=O)O)CCC2(C(=O)O)CCC3(C)C(=CCC4C5(C)CCC(OC6OCC(O)C(O)C6OC6OC(CO)C(O)C(O)C6O)C(C)(C)C5CCC43C)C2C1 [Compound 4, 3β-[(O-β-D-glucopyranosyl-(1→2)-α-L-arabinopyranosyl)oxy]olean12-ene-28,29-dioic acid] | – | > 100 µM | 246 ± 21.2 µM | – | – |
| CC1(C)CC[C@]2(C(=O)O[C@@H]3O[C@H](CO)[C@@H](O)[C@H](O)[C@H]3O)CC[C@]3(C)C(=CC[C@@H]4[C@@]5(C)CC[C@H](O[C@@H]6OC[C@H](O)[C@H](O)[C@H]6O)[C@@](C)(CO)[C@@H]5CC[C@]43C)[C@@H]2C1 [Compound 19, HN-saponin F] | 466 ± 35.1 µM | – | – | > 100 µM | – |
| CC1OC(OC2C(OC3CCC4(C)C(CCC5(C)C4CC=C4C6CC(C)(O)CCC6(C(=O)O)CCC45C)C3(C)C)OCC(O)C2O)C(O)C(O)C1O [Compound 3, 3β-[(α-L-rhamnopyranosyl-(1→2)-α-L-arabinopyranosyl)oxy]-20α,30-dihydroxy-norolean-12-en-28-oic acid] | – | > 100 µM | 150 ± 13.6 µM | – | – |
| CC1(C)CC[C@]2(C(=O)O)CC[C@]3(C)C(=CC[C@@H]4[C@@]5(C)CCC(O[C@@H]6O[C@H](C(=O)O)[C@@H](O)[C@H](O)[C@H]6O)[C@@](C)(C=O)[C@@H]5CC[C@]43C)C2C1 (stereo partly shown) [Compound 11, gypsogenin 3-O-glucuronide] | 402 ± 39.5 µM | – | – | > 100 µM | – |
| 3-O-β-D-glucuronopyranosyl-3β,16α-dihydroxyolean-12-en-28-oic acid [Compound 10] | 215 ± 20.2 µM | – | – | – | moderate inhibitory effects on neuroinflammation |
| CC1(C)CC[C@]2(C(=O)O)CC[C@]3(C)C(=CC[C@@H]4[C@@]5(C)CC[C@H](O[C@@H]6O[C@H](CO)[C@@H](O)[C@H](O)[C@H]6O[C@@H]6O[C@H](CO)[C@@H](O)[C@H](O)[C@H]6O)C(C)(C)[C@@H]5CC[C@]43C)[C@@H]2C1 [Compound 24, 3-O-β-D-glucopyranosyl-(1→2)-β-D-glucopyranosyl oleanolic acid] | 189 ± 15.2 µM | – | – | > 100 µM | – |
| CC1(C)CCC2(C(=O)O)CCC3(C)C(=CCC4C5(C)CCC(OC6OCC(O)C(OC7OC(CO)C(O)C(O)C7O)C6O)C(C)(C)C5CCC43C)C2C1 [Compound 21, oleanolic acid 3-O-β-D-glucopyranosyl (1→3)-α-L-arabinopyranoside] | 306 ± 28 µM | – | – | – | – |
| 3-O-6′-O-methyl-β-D-glucuronopy-ranoside of gypsogenin [Compound 15] | 157 ± 11 µM | – | – | > 100 µM | – |
| 3-O-α-rhamnopyranose- (1→2)-α-arabinopyranosyl-29-hydroxy-olean-12-en-28-oic acid [Compound 17] | 235 ± 21.1 µM | – | – | > 100 µM | – |
| elatoside G [Compound 12] | 264 ± 22.9 µM | – | – | – | moderate inhibitory effects on neuroinflammation |
| CC1(C)CC[C@]2(C(=O)O)CC[C@]3(C)C(=CC[C@@H]4[C@@]5(C)CC[C@H](O[C@@H]6OC[C@H](O)[C@H](O)[C@H]6O[C@@H]6O[C@H](CO)[C@@H](O)[C@H](O)[C@H]6O)C(C)(C)[C@@H]5CC[C@]43C)[C@@H]2C1 [Compound 20, saponin PE] | 136 ± 10.6 µM | – | – | > 100 µM | – |
| CC1(CO)CCC2(C(=O)O)CCC3(C)C(=CCC4C5(C)CCC(OC6OCC(O)C(OC7OC(CO)C(O)C(O)C7O)C6O)C(C)(C)C5CCC43C)C2C1 (stereo not drawn) [Compound 1, 3-O-β-glucopyranosyl-(1→3)-β-arabinopyranosyl-29-hydroxy-olean-12-en-28-oic acid] | – | > 100 µM | 143 ± 10.9 µM | – | – |
| hederagenin-3-O-β-D- glucuronopyranoside 6′-O-methyl ester [Compound 13] | – | – | – | – | moderate inhibitory effects on neuroinflammation |
| CC1(C)CC[C@]2(C(=O)O)CC[C@]3(C)C(=CC[C@@H]4[C@@]5(C)CC[C@H](O[C@@H]6O[C@H](C(=O)O)[C@@H](O)[C@H](O)[C@H]6O)C(C)(C)[C@@H]5CC[C@]43C)[C@@H]2C1 [Compound 8, oleanolic acid 3-O-β-D-glucuronopyranoside] | 107 ± 9.59 µM | – | – | > 100 µM | – |
| lucyoside F [Compound 22] | 146 ± 12.7 µM | – | – | > 100 µM | – |
| HN-saponin D1 [Compound 6] | 108 ± 8.24 µM | – | – | > 100 µM | – |
| CC1(C)CC[C@]2(C(=O)O)CC[C@]3(C)C(=CC[C@@H]4[C@@]5(C)CC[C@H](O[C@@H]6OC[C@H](O)[C@H](O)[C@H]6O)[C@@](C)(CO)[C@@H]5CC[C@]43C)[C@@H]2C1 [Compound 7, hederagenin glycosides 3-O-α-L-arabinopyranoside] | 124 ± 10.6 µM | – | – | > 100 µM | – |
| O=c1c(O)c(-c2ccc(O)c(O)c2)oc2cc(O)cc(O)c12 [Quercetin, reference compound] | – | 10.5 ± 1.07 µM | – | – | – |
| lucyoside H [Compound 23] | 131 ± 10 µM | – | – | > 100 µM | – |
| paritriside E [Compound 27] | 133 ± 11.8 µM | – | – | > 100 µM | – |
| 3-O-β-D-(6′-O-methyl-glucuronopyranosyl) oleanolic acid [Compound 16] | 102 ± 9.77 µM | – | – | – | moderate inhibitory effects on neuroinflammation |
| HN-saponin K [Compound 9] | 241 ± 18.6 µM | – | – | > 100 µM | – |
| C[C@@H]1O[C@@H](O[C@H]2[C@H](O[C@H]3CC[C@]4(C)[C@H]5CC=C6[C@@H]7CC(C)(C)CC[C@]7(C(=O)O)CC[C@@]6(C)[C@]5(C)CC[C@H]4C3(C)C)OC[C@H](O)[C@@H]2O)[C@H](O)[C@H](O)[C@H]1O [Compound 18, 3-O-[α-L-rhamnopyranosyl-(1→2)-α-L-arabinopyranosyl] oleanolic acid] | 204 ± 19.8 µM | – | – | > 100 µM | – |
